Experimental data: PMC9287337 (Scientific Reports, 2022)
Like-named read-outs stand apart in the source and are kept apart here.

Key:
Assay type in all cases: cell-based, mouse
[1] = RealTime-Glo MT cell viability assay; settings: mouse, serum-starved C2C12 cells, 24 h, serum-starved C2C12, read-out: Cell viability, percent of luminescence in control untreated cells
Procedure: (§1) To first determine how these novel compounds effect the health of C2C12 cells and to establish the range of subtoxic concentrations for future studies, cell viability assays were carried out. Serum-starved C2C12 cells were exposed to increasing concentrations (0.01–1000 µM) of SY-LB-35 and SY-LB-57 for 24 h. Exposure to Triton X-100 (125 µM) is toxic to cells and was used as a negative control for cell viability. Following the 24-h exposure period, the MT Cell viability substrate was added to the cultures. Only viable cells can reduce the substrate and, thereby, generate a luminescent signal. Any decrease in luminescence was considered an indication of cell death or toxicity.
(§2) C2C12 cells (100 µL) were seeded in a 96-well plate at 5 × 10^5 cells/mL and incubated overnight in complete growth media to achieve 80% confluency followed by serum-starvation for 16–18 h.
(§3) Next, reagents from the RealTime-Glo™ MT Cell Viability Assay Kit (Promega, Madison, WI, USA) were diluted in SS medium and used according to manufacturer’s protocol. Cellular luminescence was measured using the FilterMax F5 Multi-mode Microplate Reader (Molecular Devices, San Jose, CA, USA). Data from three independent experiments with individual experiments carried out in triplicate was determined and reported as a percentage of control.

C2C12 cells [2] = assay: RealTime-Glo MT cell viability assay; settings: for Increase in cell viability over control / Decrease in cell viability compared with control: 24 h; for IC50: non-linear regression, read-out: IC50 (concentration at which cell viability is reduced by 50%)
Procedure: as §1, §2, §3

C2C12 cells [3] = assay: Cell cycle analysis by flow cytometry; settings: 24 h
Procedure: C2C12 cells were starved in SS medium followed by 24-h treatment with 0.01–10 µM SY-LB-35 or SY-LB-57. The distribution of cell cycle phases was analyzed with respect to the control, untreated cells (Fig. 9). […] Furthermore, the percentage of cells in G0/G1 phase decreased with respect to control following the treatment of C2C12 cells with the indolyl-benzimidazole compounds (****p < 0.0005; ***p < 0.001; **p < 0.01; Fig. 9A). Thus, SY-LB-35 and SY-LB-57 at all tested concentrations shifted the cell cycle in C2C12 cells toward proliferation causing a significant decline in the population of cells in G0/G1 phase and a sharp increase in the percentage of cells present in proliferative phases of the cell cycle (S and G2/M).
Equal numbers (~ 10^6) of cells, from each treatment counted as above were collected, fixed with 4% paraformaldehyde (PFA) for 10 min at RT and pelleted at 300 g for 5 min. Cell pellets were washed with Stain buffer (BD Pharmingen, San Diego, CA, USA) followed by permeabilization with 90% ice-cold methanol for 15 min at 4 °C. The cells were again washed with Stain buffer and the pelleted cells were stained with BD Pharmingen Propidium Iodide/RNase Staining Buffer (0.5 mL/10^6 cells) for 30 min at RT while protected from light. Following two more washes, the pellet was resuspended in 225 µL Stain buffer and the cells were divided into 3 microcentrifuge tubes (75 µL each) for analysis with the Amnis® Flowsight Imaging Flow Cytometer (Austin, TX, USA). IDEAS® software (version 6.2, Seattle, WA, USA) was used to analyse the data files.

SMILES | viability at 24 h, 0.01 µM [1] [%] | viability at 24 h, 0.1 µM [1] [%] | viability at 24 h, 1 µM [1] [%] | viability at 24 h, 10 µM [1] [%] | viability at 24 h, 100 µM [1] [%] | viability at 24 h, 1 mM [1] [%] | IC50 (C2C12 cells [2]; C2C12, 24 h) [µM] | IC50 (C2C12 cells [2]; Mus musculus, C2C12, 24 h) [µM] | Cells in G0/G1 phase (C2C12 cells [3]; 0.01 µM) [%] | Cells in G2/M phase (C2C12 cells [3]; 0.01 µM) [%] | Cells in S phase (C2C12 cells [3]; 0.01 µM) [%] | Cells in G0/G1 phase (C2C12 cells [3]; 0.1 µM) [%] | Cells in G2/M phase (C2C12 cells [3]; 0.1 µM) [%] | Cells in S phase (C2C12 cells [3]; 0.1 µM) [%] | Cells in G0/G1 phase (C2C12 cells [3]; 1 µM) [%] | Cells in G2/M phase (C2C12 cells [3]; 1 µM) [%] | Cells in S phase (C2C12 cells [3]; 1 µM) [%] | Cells in G0/G1 phase (C2C12 cells [3]; 10 µM) [%] | Cells in G2/M phase (C2C12 cells [3]; 10 µM) [%] | Cells in S phase (C2C12 cells [3]; 10 µM) [%] | further results
Oc1ccc2[nH]c(-c3nc4ccccc4[nH]3)cc2c1 [SY-LB-35] | 241 | 244 | 218 | 137 | 69 | 13 | 401 | 401 | 76 | 13 | 11 | 76 | 12 | 12 | 77 | 11 | 12 | 76 | 11 | 12 | Increase in cell viability over control (C2C12 cells [2]; 0.01 µM): 150 % over control; Increase in cell viability over control (C2C12 cells [2]; 0.1 µM): 150 % over control; Increase in cell viability over control (C2C12 cells [2]; 1 µM): 120 % over control; Decrease in cell viability compared with control (C2C12 cells [2]; 100 µM): 30 % decrease; Decrease in cell viability compared with control (C2C12 cells [2]; 1 mM): 80 % decrease
COc1ccc2[nH]c(-c3nc4ccccc4[nH]3)cc2c1 [SY-LB-57] | 390 | 394 | 301 | 251 | 151 | 20 | 808 | 808 | 76 | 13 | 13 | 76 | 11 | 14 | 77 | 11 | 12 | 79 | 10 | 13 | Non-toxic / safe concentrations (C2C12 cells [2]; C2C12, 24 h): ≤ 10 µM
